According to article PMC10945332, “Precision peptide theranostics: developing N- to C-terminus optimized theranostics targeting cholecystokinin-2 receptor” (Theranostics, 2024):
Like-named read-outs stand apart in the source and are kept apart here. Where a SMILES comes first, the peptide text is derived from it. [ ]: non-standard residue; d: D form. The star is where a group is joined. DOTA = O=C(O)CN1CCN(CC(=O)O)CCN(CC(=O)*)CCN(CC(=O)O)CC1; 1Nal = N[C@@H](Cc1cccc2ccccc12)C(=O)O; NMeNle = CCCC[C@H](NC)C(=O)O; Sar = CNCC(=O)O

How the values were obtained:
[1] = biological target: T1, human CCK2R (Homo sapiens, UniProt P32239); assay: Competitive binding against [177Lu]Lu-DOTA-CP04 in A431-CCK2R cells; conditions: for IC50: N-terminal free linear peptides, vs [177Lu]Lu-DOTA-CP04 in A431-CCK2R cells, average of 2-4 biological replicates, read-out: IC50
T1 construct: stably transfected to over-express the human full-length CCK2R (A431-CCK2R); expressed in transfected cells
T1 sequence (P32239 1-447): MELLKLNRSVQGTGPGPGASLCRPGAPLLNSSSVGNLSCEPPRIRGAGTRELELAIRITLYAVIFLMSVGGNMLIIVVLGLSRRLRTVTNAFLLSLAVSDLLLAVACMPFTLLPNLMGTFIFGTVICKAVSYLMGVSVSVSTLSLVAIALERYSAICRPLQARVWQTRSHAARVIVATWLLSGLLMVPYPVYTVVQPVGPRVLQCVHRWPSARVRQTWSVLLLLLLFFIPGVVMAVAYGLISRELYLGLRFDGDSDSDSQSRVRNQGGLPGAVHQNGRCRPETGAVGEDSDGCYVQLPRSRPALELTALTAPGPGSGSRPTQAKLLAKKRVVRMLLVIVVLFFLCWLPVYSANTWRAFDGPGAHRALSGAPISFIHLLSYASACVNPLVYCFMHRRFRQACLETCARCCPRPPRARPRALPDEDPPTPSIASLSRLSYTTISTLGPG
Protocol: Materials and Methods: Biology […]
In Vitro CCK2R-Ligand Competitive Binding Assays
All CCK2R binding experiments were conducted using A431 (human epidermoid carcinoma) […]
cells stably transfected to over-express the human full-length CCK2R (A431-CCK2R) (gifted […]
by Dr. Elisabeth von Guggenberg, Medizinische Universität Innsbruck).[41] As a negative […]
control, A431 cells stably transfected with an empty vector were analysed simultaneously […]
(A431-EV). All A431 cells were maintained in DMEM (Gibco, Australia) media supplemented […]
with 10% foetal calf serum and 250 µg/mL G418 as described previously.[32]
The affinity of all peptides for the CCK2R was evaluated using competitive binding assays […]
Briefly, 48 hours before the experiment […]
cells were plated at a density of 300,000 cells per well in 12 well plates. On the day of the […]
experiment, linear peptides were diluted in DMEM supplemented with 1% foetal calf serum to […]
DOTA-CP04 was added to each dilution. Cells were washed twice in ice-cold binding buffer […]
(DMEM supplemented with 1% foetal calf serum) and resuspended in 1 mL of the pre-prepared […]
peptide mix before being incubated at room temperature for 1 hour. Post-incubation the media […]
was removed and kept for analysis (unbound fraction) and the cells were washed twice in ice- […]
cold PBS which was pooled with the unbound fraction. Finally, 1 M NaOH (150µL) was added […]
to the wells and allowed to incubate for 5 min before lysates were collected (bound fraction).
A small volume of lysate was kept aside to determine protein concentration using the Pierce® BCA protein assay kit (Thermo Fisher, Australia). All samples were analysed using the Perkin […]
normalised according to protein concentration. Half maximal inhibitory concentration (IC50) was determined using nonlinear regression calculated using Gr aphPad Prism Software (GraphPad Software, California, USA). […]

[2] = in vivo; conditions: female, NSG, mouse, iv, total radioactivity
Protocol: (§1) In order to assess these promising ligands as potential theranostics, the library of [^68Ga]Ga-DOTA-peptides was evaluated using static small animal PET imaging and quantifying biodistribution studies. This study was performed to investigate tumor uptake as well as the accumulation of radioligands in other organs. Mice bearing A431-CCK2R tumors were imaged at 1- and 2 hours post tracer injection, and tracer biodistribution was evaluated at the 1 hour and 2.5 hour time points to quantify tumor uptake and retention. […]
(§2) Small Animal PET Imaging and Biodistribution Studies
(§3) Female NSG mice (age 11-14 weeks) were sourced from Animal Resources Centre, (Canning Vale, Western Australia) and were inoculated subcutaneously on the right flank with 1-3 x 106 […]
(§4) A431-CCK2R cells in PBS:Matrigel (1:1). […]
(§5) Mice were assigned to imaging and/or biodistribution groups (tumour volumes: 119-327 mm3).
(§6) The respective 68Ga labelled tracer (1.63–3.81 MBq, 170µL, 13.7–14.2 pmoles) containing vehicle solution (75µL, DMSO:Tween 80: water, 2:2:6 v/v/v) was then administered to mice intravenously via tail vein injection. Three mice were euthanized for biodistribution 1 hour post injection (n=3) and selected tissues were excised, weighed, and counted using a Capintec (Captus 4000e) gamma counter. Three mice were anaesthetised using 1.5% isoflurane and imaged at 1 hour (n=3) and 2 hours (n=3) with a G8 Small Animal PET/CT scanner (Perkin […]
(§7) Elmer/Sofie Biosciences). A 10 min static PET scan was acquired, followed immediately by a CT scan (Supplementary Data, pS51–S55). PET images were acquired using the G8 acquisition engine software and reconstructed using a 3D maximal likelihood and expectation maximization (ML-EM) algorithm. PET images were analysed using VivoQuant software, version 3.0 (inviCRO Imaging Services and Software) to quantify maximum standardised uptake value in regions of interest (SUVmax). Background regions for imaging experiments were calculated by quantitating mean standardised uptake value (SUVmean) of the abdomen and gut region. The region of interest was selected due to low uptake in abdomen/gut during imaging. After imaging the 2-hour time point, mice organs were harvested for biodistribution […]
(§8) For blocking CCK2R binding a solution of N-[(3R)-2,3-Dihydro-1-[2-(2-methylphenyl)-2-oxoethyl]-2-oxo-5-phenyl-1H-1,4-benzodiazepin-3-yl]-N′-(3-methylphenyl)-urea (YM022; Sigma Aldrich) was used. YM022 (75µL of a 1 mg/ml solution constituting DMSO:Tween 80: water, 2:2:6 v/v/v) was added to the respective 68Ga labelled tracer (1.41–3.61 MBq, 100 µL, 13.7–14.2 pmoles) and this mixture ([…]) was administered in three mice intravenously via tail vein injection and organs harvested at 1 hour post injection for biodistribution analysis, as above.
(§9) All animal experiments were performed with the approval of the Peter MacCallum Cancer Centre Animal Experimentation Ethics Committee and in accordance with the Australian code for the care and use of animals for scientific purposes, 8th Edition, 2013 (AEEC Approval

[3] = type: physicochemical
Protocol: Lipophilicity, expressed as the octanol-water partition coefficient, constitutes an important property in drug action, influencing both pharmacokinetic and pharmacodynamics processes. The distribution coefficient (LogD7.4) of [^68Ga]Ga-DOTA-peptides was determined by measuring radioactivity distribution in the aqueous phase (phosphate buffer pH7.4) and the organic phase (n-octanol). […]
To determine the distribution coefficient (logD 7.4), 68Ga radiolabeled peptides [68Ga]Ga-DOTA-GA4, [68Ga]Ga-DOTA-GA7, and [68Ga]Ga-DOTA-GA11–GA13 were diluted to approximately 20 pmol/mL in PBS (pH 7.4) and an equal volume of n-octanol was added. The mixture was vortexed vigorously for 10 cycles of 1 min at room temperature before being centrifuged for 6 min to separate the two phases. Equal volumes from each phase were aliquoted into individual counting tubes and analysed for 1 min using the Perkin Elmer 2480 Wizard2™ gamma counter (PerkinElmer, Massachusetts, USA). The distribution coefficient was calculated using the following equation LogD = […]. […]

[4] = mouse, in vivo
Protocol: as §1, §2, §3, §4, §5, §6, §7, §8, §9

[5] = type: in vitro ADME, mouse; conditions: mouse, tissue homogenate
Protocol: Metabolic stability is an important determinant of the efficacy of peptide radiopharmaceuticals and their progression as promising theranostic candidates. In vitro, metabolic degradation through hepatic and renal enzymes can be assessed by utilizing liver and kidney tissue homogenates. Radiolabeled peptides [^68Ga]Ga-DOTA-GA4, and D-Ala substituted variants [^68Ga]Ga-DOTA-GA7, [^68Ga]Ga-DOTA-GA11-GA13 were incubated in liver and kidney mouse homogenates, in human serum at 37°C, and in HEPES buffer (pH 7.4) as a negative control. Following a time course experiment, the metabolites were analyzed using HPLC to quantify the % breakdown of the respective parent peptide. […]
To assess the stability of 68Ga radiolabeled peptides against enzymatic degradation, duplicate samples (750-900 pmol/mL, 2-5MBq) were incubated at 37 ℃ with pooled human serum, 15% […]
mouse kidney homogenate, 30% mouse liver homogenate or 20 mM HEPES, pH 7.3 (control).
Human blood was collected, and serum prepared using SSTII advance vacutainer tubes according to the manufacturer’s instructions (Becton Dickinson, New Jersey, USA). Mouse kidney and liver homogenates were prepared by washing the tissues in ice-cold HEPES buffer, pH 7.3 and placing them in pre-chilled tubes containing HEPES buffer and 2.38 mm metal beads (Mo-Bio Laboratories, Hilden, Germany). Tissues were homogenised using the PowerLyzer24 homogeniser (Qiagen, Hilden, Germany) according to the manufacturer’s instructions. 68Ga radiolabeled peptides were then incubated with the various lysates at 37 ℃ and samples were collected at 15, 30, 60 and 90 min. Reactions were terminated by addition of an equal volume of acetonitrile and centrifugation for 2 min at 15,000 rpm. Supernatants were diluted in water before being analysed by HPLC using a Kinetex C18 XB column (5µm

`CCCC[C@@H](C(=O)N[C@@H](CC(=O)O)C(=O)N[C@@H](Cc1cccc2ccccc12)C(N)=O)N(C)C(=O)[C@H](Cc1c[nH]c2ccccc12)NC(=O)CN(C)C(=O)[C@H](Cc1ccc(O)cc1)NC(=O)[C@H](C)NC(=O)[C@@H](CCC(=O)O)NC(=O)[C@@H](CCC(=O)O)NC(=O)[C@@H](CCC(=O)O)NC(=O)[C@@H](CCC(=O)O)NC(=O)[C@@H](C)NC(=O)[C@H](N)CCC(=O)O` [GA6] (H-[dE][dA][dE][dE][dE][dE]AY[Sar]W[NMeNle]D[1Nal]-NH2) showed an IC50 [1] of 1.23 nM.

With `CCCC[C@@H](C(=O)N[C@@H](CC(=O)O)C(=O)N[C@@H](Cc1cccc2ccccc12)C(N)=O)N(C)C(=O)[C@H](Cc1c[nH]c2ccccc12)NC(=O)CN(C)C(=O)[C@H](Cc1ccc(O)cc1)NC(=O)[C@H](C)NC(=O)[C@@H](CCC(=O)O)NC(=O)[C@@H](CCC(=O)O)NC(=O)[C@@H](CCC(=O)O)NC(=O)[C@@H](C)NC(=O)[C@@H](CCC(=O)O)NC(=O)[C@H](N)CCC(=O)O` [GA7] (H-[dE][dE][dA][dE][dE][dE]AY[Sar]W[NMeNle]D[1Nal]-NH2) the IC50 [1] was 0.184 nM, the “fold improvement of activity over CP04” value ([1]; linear peptides) was “greater than 10 fold” and the “fold improvement of affinity over GA1” value ([1]; linear peptides) was about 2 fold.

In the case of `CCCC[C@@H](C(=O)N[C@@H](CC(=O)O)C(=O)N[C@@H](Cc1cccc2ccccc12)C(N)=O)N(C)C(=O)[C@H](Cc1c[nH]c2ccccc12)NC(=O)CN(C)C(=O)[C@H](Cc1ccc(O)cc1)NC(=O)[C@H](C)NC(=O)[C@@H](CCC(=O)O)NC(=O)[C@@H](CCC(=O)O)NC(=O)[C@@H](C)NC(=O)[C@@H](CCC(=O)O)NC(=O)[C@@H](CCC(=O)O)NC(=O)[C@H](N)CCC(=O)O` [GA8] (H-[dE][dE][dE][dA][dE][dE]AY[Sar]W[NMeNle]D[1Nal]-NH2), the IC50 [1] is reported as 1.62 nM.

In the case of `CCCC[C@@H](C(=O)N[C@@H](CC(=O)O)C(=O)N[C@@H](Cc1cccc2ccccc12)C(N)=O)N(C)C(=O)[C@H](Cc1c[nH]c2ccccc12)NC(=O)CN(C)C(=O)[C@H](Cc1ccc(O)cc1)NC(=O)[C@H](C)NC(=O)[C@@H](C)NC(=O)[C@@H](CCC(=O)O)NC(=O)[C@@H](CCC(=O)O)NC(=O)[C@@H](CCC(=O)O)NC(=O)[C@@H](CCC(=O)O)NC(=O)[C@H](N)CCC(=O)O` [GA10] (H-[dE][dE][dE][dE][dE][dA]AY[Sar]W[NMeNle]D[1Nal]-NH2), the IC50 [1] is reported as 1.62 nM.

With `CCCC[C@@H](C(=O)N[C@@H](CC(=O)O)C(=O)N[C@@H](Cc1cccc2ccccc12)C(N)=O)N(C)C(=O)[C@H](Cc1c[nH]c2ccccc12)NC(=O)CN(C)C(=O)[C@H](Cc1ccc(O)cc1)NC(=O)[C@H](C)NC(=O)[C@@H](CCC(=O)O)NC(=O)[C@@H](CCC(=O)O)NC(=O)[C@@H](CCC(=O)O)NC(=O)[C@@H](C)NC(=O)[C@@H](CCC(=O)O)NC(=O)[C@@H](CCC(=O)O)NC(=O)CN1CCN(CC(=O)O)CCN(CC(=O)O)CCN(CC(=O)O)CC1` [[^68Ga]Ga-DOTA-GA7, metal not drawn] ({DOTA}-[dE][dE][dA][dE][dE][dE]AY[Sar]W[NMeNle]D[1Nal]-NH2) the tissue to tissue ratio at 1 h [2] was 17.3 ± 1.84, the SUV at 1 h ([2]; SUVmax) was 0.65 SUV and the SUV at 2 h ([2]; SUVmax) was 0.61 SUV. The logD [3] was -2.88 ± 0.09, the tissue uptake at 1 h ([4]; 3 mg/kg, Uptake in A431-CCK2R Tumors, 1 hr Blocked) was 2.76 ± 0.14 %ID/g and the tissue uptake at 1 h ([4]; Uptake in A431-CCK2R Tumors, 1 hr) was 5.71 ± 1.5 %ID/g. It also gave a tissue uptake at 2.5 h ([4]; Uptake in A431-CCK2R Tumors, 2.5 hr) of 7.36 ± 1.16 %ID/g, a tissue uptake at 1 h ([4]; Uptake in Organs: Blood) of 0.68 ± 0.31 %ID/g and a tissue uptake at 1 h ([4]; Uptake in Organs: Heart) of 0.3 ± 0.02 %ID/g. The tissue uptake at 1 h ([4]; Uptake in Organs: Kidneys) was 8.67 ± 0.8 %ID/g, the tissue uptake at 1 h ([4]; Uptake in Organs: Liver) was 0.3 ± 0.01 %ID/g and the tissue uptake at 1 h ([4]; Uptake in Organs: Lungs) was 0.57 ± 0.03 %ID/g. For the same molecule, the tissue uptake at 1 h ([4]; Uptake in Organs: Muscle) was 0.12 ± 0.02 %ID/g, the tissue uptake at 1 h ([4]; Uptake in Organs: Spleen) was 0.24 ± 0.02 %ID/g and the tissue uptake at 1 h ([4]; Uptake in Organs: Stomach) was 2.22 ± 0.14 %ID/g. For the same molecule, the half-life ([5]; Half-life (t1/2) in Kidney Homogenate) was 226 min and the half-life ([5]; Half-life (t1/2) in Liver Homogenate) was 352 min.
